Data: patent publication US10617695B2, “Ophthalmic compositions containing alcaftadine” (Vistakon Pharmaceuticals, LLC, priority 2006, dated 2020)

Experiments:
[1] = target: T1, human histamine H4 receptor (Homo sapiens, UniProt Q9H3N8); assay: H4 receptor agonist assay: inhibition of forskolin-induced cAMP (reporter gene) in transfected SK-N-MC cells; format: cell-based
T1 construct: express a reporter gene construct and the human H4 receptor full-coding region; expressed in transfected cells; host or cells: SK-N-MC cells with a CRE-beta-galactosidase reporter
Method: (§1) Alcaftadine and 6,11-dihydro-11-(1-methyl-4-piperdinylidene)-5H-imidazo[2,1-b][3]benazepine-3-carboxylic acid (CAS #147083-93-0) were prepared at 10 mM in 100% dimethylsulfoxide (DMSO) for the binding assays and at 10 mM in Na/K phosphate buffer, pH 7.0, for the cellular assays. Cell pellets from SK-N-MC cells transfected with human H4 receptor were homogenized in 20 mM Tris-HCl/0.5 mM ethylendediaminetetraacetic acid (EDTA) pH 8.0 (TE buffer). Supernatants collected after centrifugation at 800 g were recentrifuged at 30,000 g for 30 min. Pellets were re-homogenized in TE buffer. […] Non-specific binding was defined with 100 μM cold histamine. […] Seven concentrations of compound were tested spanning 10^−11 to 10^−5 M with each concentration being run in triplicate. […] This assay was run twice and the results are reported as the average of the two runs. SK-N-MC cell lines were created that express a reporter gene construct and the human H4 receptor full-coding region. […] Color was quantitated on a microplate reader at absorbance 570 nm. […]
To test whether alcaftadine or 6,11-dihydro-11-(1-methyl-4-piperdinylidene)-5H-imidazo[2,1-b][3]benazepine-3-carboxylic acid (CAS #147083-93-0) were H4 receptor agonists, functional assays were carried out in SK-N-MC cells transfected with the human histamine H4 receptor. The ability of the compounds to inhibit forskolin-induced cAMP increases was assessed.

[2] = Systemic (plasma) levels of the carboxylic acid in patients; format: in vivo, human; conditions: for Cmax: plasma, other: ophthalmic solution, bilateral instillation, 0.25 % ophthalmic solution, 0.25% ophthalmic solution bilaterally
Method: Patients were bilaterally dosed with 0.25% ophthalmic solutions of 6,11-dihydro-11-(1-methyl-4-piperdinylidene)-5H-imidazo[2,1-b][3]benazepine-3-carboxylic acid for seven days. The plasma levels of those patients was assessed pre-dose, and 0.25, 0.5, 1, 1.5, 2, 3, 4, 6, 8, 12, and 18 hour post medication instillation on days one and seven.

[3] = target: T1, human histamine H4 receptor; assay: H4 receptor antagonist assay: shift of histamine EC50, Schild plot, in transfected SK-N-MC cells; format: cell-based
Method: as §1, with “region. The reporter gene was β-galactosidase under the control of cyclic adenosine monophosphate (cAMP) responsive elements. Cells were plated in 96-well plates the night before the assay. Antagonists were added 10 min prior to the addition of histamine, which was added directly to the cell medium. Forskolin (5 μM final concentration) was added 10 min after the addition of histamine. Cells were returned to the incubator for 6 h at 37° C. The medium was then aspirated and cells were lysed with 25 μL of 0.1× assay buffer (10 mM sodium phosphate, pH 8, 0.2 mM MgSO4, 0.01 mM MnCl2) and incubated at room temperature for 10 min.” for “region.”
To test whether alcaftadine or 6,11-dihydro-11-(1-methyl-4-piperdinylidene)-5H-imidazo[2,1-b][3]benazepine-3-carboxylic acid (CAS #147083-93-0) were antagonists of the H4 receptor, the ability of the compounds shift the EC50 of the histamine inhibition of forskolin-induced cAMP increases was assessed in SK-N-MC cells transfected with the human histamine H4 receptor. […]

[4] = system: RBL-CCR1 (Rat Basophil Leukemia-Chemokine Receptor-1) cell line; assay: Mast cell degranulation / cell stabilization in RBL-CCR1 cells; format: cell-based
Method: The cell stabilization potential of alcaftadine was evaluated using the RBL-CCR1 (Rat Basophil Leukemia-Chemokine Receptor-1) cell line as a way of investigating its ability to effect mast cell stabilization. The use of basophil cell lines to assess anti-allergic drugs for cell stabilization potential is well established. Physiologically, basophils are similar to mast cells, containing pre-formed inflammatory mediators that are released through a similar degranulation process involving IgE cross-linking. Because these cell lines are readily available, they present efficiencies over conducting stabilization assays in mast cell lines.
Cultured RBL-CCR1 cells were sensitized to anti-DNP IgE. Following sensitization, cells were treated with various concentrations of alcaftadine or its major active metabolite (0.083%, 0.0083% and 0.00083%) or ophthalmic vehicle (placebo), and stimulated with DNP and/or MIP-1a (Macrophage Inflammatory Protein-1 alpha, a degranulation enhancer) to induce degranulation. A 10× and 100× placebo control solution (ophthalmic vehicle solution) in D-DEM (Dulbecco's modified Eagle's medium) was also employed.
However, co-stimulation induced a robust degranulation response.

[5] = target: T1, human histamine H4 receptor; assay: [3H]histamine competition binding to membranes of SK-N-MC cells transfected with human H4 receptor; conditions: average of two runs; 10 nM [3H]histamine; Cheng and Prusoff

T1 sequence (Q9H3N8 whole entry): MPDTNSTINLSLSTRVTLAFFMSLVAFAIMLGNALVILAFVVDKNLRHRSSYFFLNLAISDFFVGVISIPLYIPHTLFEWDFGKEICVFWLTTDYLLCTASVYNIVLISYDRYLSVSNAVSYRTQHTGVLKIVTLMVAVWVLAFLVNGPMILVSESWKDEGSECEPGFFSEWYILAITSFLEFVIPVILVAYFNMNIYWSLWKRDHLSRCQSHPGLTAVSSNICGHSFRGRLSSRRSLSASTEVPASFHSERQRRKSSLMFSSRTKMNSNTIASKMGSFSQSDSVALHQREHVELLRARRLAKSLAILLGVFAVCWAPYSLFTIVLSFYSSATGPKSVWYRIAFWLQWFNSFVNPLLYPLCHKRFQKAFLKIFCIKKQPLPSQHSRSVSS

## NCCc1c[nH]cn1 [histamine, reference compound]
[1]
  agonist activity: inhibition of forskolin-induced cAMP levels: agonist

## CN1CCC(=C2c3ccccc3CCn3c(C(=O)O)cnc32)CC1 [6,11-dihydro-11-(1-methyl-4-piperdinylidene)-5H-imidazo[2,1-b][3]benazepine-3-carboxylic acid]
[2]; human, in vivo
  maximum plasma concentrations: 7.23 ng/mL
[2]; human, Day 1
  Cmax: 3.23 ng/mL
[2]; human, Day 7
  Cmax: 2.71 ng/mL
[2]; post dosing, lower limit of quantification 0.1 ng/mL
  time by which plasma concentrations declined to below the lower limit of quantification: ≤ 12 h
[3]
  antagonist activity: shift of histamine EC50 (highest concentration without shift): > 100 µM
[4]
  overall membrane stabilization: effective membrane stabilizing agents
[4]; 10× dose level
  stabilization effect added to that of placebo: enhanced the stabilization effect
[4]; […], DNP-HSA alone, MIP-1a alone, and co-stimulation
  degranulation at the highest concentration: unanticipated and significant degranulation
[4]; co-stimulation assay, concentrations of […] and […], p<0.0001 for both concentrations
  cell stabilization compared to co-stimulation control and negative controls (placebo 10× and placebo 100×): superior at cell stabilization
[5]
  Ki: > 10 µM
[1]; absence of histamine, read-out: agonist activity: inhibition of forskolin-induced cAMP levels (highest concentration without agonism)
  EC50: > 100 µM
